Results from ChEMBL document CHEMBL1201862, “PubChem BioAssay data set” (2004).
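How tested: cells in 96-well plates exposed to compound for 48 hours at five concentrations. At the GI50, growth is halved.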 Active and inactive are the calls of the source. Cut-off read from the data, not from the text of the source: active = GI50 up to about 1.1 µM and inactive = higher.

Experiments:
Assay in all cases: NCI tumour cell line growth inhibition, 48 h
ACHN = test system: ACHN
EKVX = test system: EKVX
HL-60 = test system: HL-60
HOP-92 = test system: HOP-92
HT-29 = test system: HT-29
KM12 = test system: KM12
NCI-H226 = test system: NCI-H226
NCI-H23 = test system: NCI-H23
RXF 393 = test system: RXF 393
SF-295 = test system: SF-295
SK-MEL-2 = test system: SK-MEL-2
SK-OV-3 = test system: SK-OV-3
SN12C = test system: SN12C
U-251 = test system: U-251
UACC-62 = test system: UACC-62
HCT-15 = test system: HCT-15
NCI-H460 = test system: NCI-H460
RPMI-8226 = test system: RPMI-8226

Row | SMILES | GI50 (ACHN) | GI50 (EKVX) | GI50 (HL-60) | GI50 (HOP-92) | GI50 (HT-29) | GI50 (KM12) | GI50 (NCI-H226) | GI50 (NCI-H23) | GI50 (RXF 393) | GI50 (SF-295) | GI50 (SK-MEL-2) | GI50 (SK-OV-3) | GI50 (SN12C) | GI50 (U-251) | GI50 (UACC-62) | GI50 (HCT-15) | GI50 (NCI-H460) | GI50 (RPMI-8226)
1 | C[C@@]1(CBr)C[C@@](C)(/C=C/Cl)[C@@H](Cl)C[C@H]1Cl | 12.7 µM (inactive) | 18.1 µM (inactive) | 3.06 µM (inactive) | 13.6 µM (inactive) | 9.04 µM (inactive) | 7.83 µM (inactive) | 12.8 µM (inactive) | 13.3 µM (inactive) | 13.8 µM (inactive) | 13.8 µM (inactive) | 2.74 µM (inactive) | 16 µM (inactive) | 11.7 µM (inactive) | 14.2 µM (inactive) | 15.5 µM (inactive) | – | – | –
2 | O=[N+]([O-])c1cc(/C=N\NS(=O)(=O)c2ccc(Cl)cc2)c(O)c([N+](=O)[O-])c1 | 49.8 µM (inactive) | > 100 µM (inactive) | 26.7 µM (inactive) | 36.3 µM (inactive) | 24.9 µM (inactive) | 27.5 µM (inactive) | – | 22.2 µM (inactive) | 32.8 µM (inactive) | 32.9 µM (inactive) | 31.1 µM (inactive) | 31.3 µM (inactive) | 25.6 µM (inactive) | 24 µM (inactive) | 32.4 µM (inactive) | 21.4 µM | 21 µM (inactive) | 19 µM (inactive)
3 | CN(C(=O)C12C3C4C1C1C2C3C41C#N)C(C)(C)C (centres undefined) | > 100 µM (inactive) | > 100 µM (inactive) | > 100 µM (inactive) | – | > 100 µM (inactive) | > 100 µM (inactive) | > 100 µM (inactive) | > 100 µM (inactive) | – | > 100 µM (inactive) | > 100 µM (inactive) | > 100 µM (inactive) | > 100 µM (inactive) | > 100 µM (inactive) | > 100 µM (inactive) | – | > 100 µM (inactive) | > 100 µM (inactive)
4 | Cc1nnc(N/N=C2\C(=O)Nc3ccccc32)n1N | > 100 µM (inactive) | > 100 µM (inactive) | 25.9 µM (inactive) | – | > 100 µM (inactive) | > 100 µM (inactive) | > 100 µM (inactive) | > 100 µM (inactive) | > 100 µM (inactive) | > 100 µM (inactive) | > 100 µM (inactive) | > 100 µM (inactive) | > 100 µM (inactive) | > 100 µM (inactive) | > 100 µM (inactive) | > 100 µM | > 100 µM (inactive) | > 100 µM (inactive)
5 | O=C1C=C/C(=N\c2ccc3c(c2)C(Br)c2ccccc2-3)O1 (centres undefined) | > 100 µM (inactive) | 52 µM (inactive) | 10.2 µM (inactive) | – | – | – | – | > 100 µM (inactive) | > 100 µM (inactive) | > 100 µM (inactive) | – | > 100 µM (inactive) | 21.5 µM (inactive) | > 100 µM (inactive) | 61.5 µM (inactive) | > 100 µM | > 100 µM (inactive) | 68.2 µM (inactive)
6 | COc1cc(Cn2c3ccccc3c3cc(C)c4c(c32)C=CC(C)(CCC=C(C)C)O4)cc2c1[nH]c1ccccc12 (centres undefined) [CHRESTFOLINE C] | > 100 µM (inactive) | > 100 µM (inactive) | > 100 µM (inactive) | > 100 µM (inactive) | > 100 µM (inactive) | > 100 µM (inactive) | – | > 100 µM (inactive) | > 100 µM (inactive) | > 100 µM (inactive) | > 100 µM (inactive) | > 100 µM (inactive) | > 100 µM (inactive) | > 100 µM (inactive) | > 100 µM (inactive) | > 100 µM | > 100 µM (inactive) | > 100 µM (inactive)
